Test results taken from ChEMBL document CHEMBL1201862, “PubChem BioAssay data set” (2004).
Activity calls are given as the source filed them.

Tests used:
[1] = target: T1, Dual specificity protein phosphatase 3 (Homo sapiens, UniProt P51452); assay: VHR1 phosphatase inhibitors, primary screen, biochemical, absorbance, uHTS (AID 1654)
[2] = target: T1, Dual specificity protein phosphatase 3; assay: VHR1 phosphatase inhibitors, biochemical (AID 1878)
[3] = target: Dual specificity protein phosphatase 6 (Rattus norvegicus, UniProt Q64346); assay: MKP-3 phosphatase inhibitors, primary screen, biochemical, rat enzyme, in vitro (AID 425)
[4] = target: Voltage-dependent T-type calcium channel subunit alpha-1H (Homo sapiens, UniProt O95180); assay: Cav3.2 T-type channel inhibitors, synthesized analogs, SAR follow-up, cell-based, synthetic library set 2, HEK293 HH8, Fluo-4 (AID 493023); format: functional
[5] = target: Peroxisome proliferator-activated receptor gamma (Homo sapiens, UniProt P37231); assay: PPARg partial agonists, dose response, cell-based, luminescence, assay provider (AID 504447); format: functional
[6] = target: Sphingosine 1-phosphate receptor 5 (Homo sapiens, UniProt Q9H228); assay: Late stage counterscreen assay for S1P4 antagonists: Fluorescence dose response cell-based screening assay for antagonists of the Sphingosine 1-Phosphate Receptor 5 (S1P5). [Related pubchem assays (depositor defined):AID1510, AID1524, AID1692, AID1853, AID2332, AID489009, AID489017]; format: functional
[7] = target: Sphingosine 1-phosphate receptor 3 (Homo sapiens, UniProt Q99500); assay: Late stage counterscreen assay for S1P4 antagonists: Fluorescence dose response cell-based screening assay for antagonists of the Sphingosine 1-Phosphate Receptor 3 (S1P3). [Related pubchem assays (depositor defined):AID1510, AID1524, AID1692, AID1853, AID2332, AID489009, AID489017]; format: functional
[8] = target: Sphingosine 1-phosphate receptor 2 (Homo sapiens, UniProt O95136); assay: Late stage counterscreen assay for S1P4 antagonists: Fluorescence dose response cell-based screening assay for antagonists of the Sphingosine 1-Phosphate Receptor 2 (S1P2). [Related pubchem assays (depositor defined):AID1510, AID1524, AID1692, AID1853, AID2332, AID489009, AID489017]; format: functional
[9] = target: T2, Sphingosine 1-phosphate receptor 4 (Homo sapiens, UniProt O95977); assay: Late-stage fluorescence dose response cell-based assay to identify agonists of the Sphingosine 1-Phosphate Receptor 4 (S1P4): purchased compounds EC50. [Related pubchem assays (depositor defined):AID1509, AID1523, AID1563, AID1686, AID1701, AID1801]; format: functional
T2 sequence (O95977 whole entry): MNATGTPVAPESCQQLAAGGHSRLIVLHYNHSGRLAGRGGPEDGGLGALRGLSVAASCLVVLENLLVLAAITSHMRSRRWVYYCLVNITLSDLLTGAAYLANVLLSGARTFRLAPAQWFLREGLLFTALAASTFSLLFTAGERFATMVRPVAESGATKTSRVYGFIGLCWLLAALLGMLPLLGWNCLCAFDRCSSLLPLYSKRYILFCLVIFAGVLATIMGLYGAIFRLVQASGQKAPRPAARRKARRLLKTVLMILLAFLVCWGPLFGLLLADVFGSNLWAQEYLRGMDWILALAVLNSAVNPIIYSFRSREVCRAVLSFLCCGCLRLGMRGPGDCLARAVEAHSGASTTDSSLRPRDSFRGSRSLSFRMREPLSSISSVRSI

Cannabinoid receptor 2 [10] = target: T3, Cannabinoid receptor 2 (Homo sapiens, UniProt P34972); assay: SAR analysis of antagonists of the Cannabinoid Receptor 2 using an Image-Based Assay - Set 2. [Related pubchem assays (depositor defined):AID1961, AID1965]; format: functional
[11] = target: G-protein coupled receptor 55 (Homo sapiens, UniProt Q9Y2T6); assay: SAR analysis of selective Agonists of GPR55 using an Image-Based Assay - Set 2. [Related pubchem assays (depositor defined):AID1961, AID1965]; format: functional
Cannabinoid receptor 2 [12] = target: T3, Cannabinoid receptor 2; assay: SAR analysis of agonists of the Cannabinoid Receptor 2 using an Image-Based Assay - Set 2. [Related pubchem assays (depositor defined):AID1961, AID1965]; format: functional
[13] = target: T4, G-protein coupled receptor 35 (Homo sapiens, UniProt Q9HC97); assay: SAR analysis of Agonists of the GPR35 Receptor using an Image-Based Assay - Set 3. [Related pubchem assays (depositor defined):AID1961, AID1965]; format: functional
Cannabinoid receptor 1 [14] = target: T5, Cannabinoid receptor 1 (Homo sapiens, UniProt P21554); assay: SAR analysis of antagonists of the Cannabinoid Receptor 1 using an Image-Based Assay - Set 3. [Related pubchem assays (depositor defined):AID1961, AID1965]; format: functional
Cannabinoid receptor 1 [15] = target: T5, Cannabinoid receptor 1; assay: SAR analysis of agonists of the Cannabinoid Receptor 1 using an Image-Based Assay - Set 3. [Related pubchem assays (depositor defined):AID1961, AID1965]; format: functional
[16] = target: T4, G-protein coupled receptor 35; assay: SAR analysis of Antagonists of the GPR35 Receptor using an Image-Based Assay - Set 4. [Related pubchem assays (depositor defined):[…]]; format: functional
[17] = target: Sphingosine 1-phosphate receptor 1 (Homo sapiens, UniProt P21453); assay: Fluorescence-based counterscreen assay for S1P4 agonists: Cell-based dose response high throughput screening assay to identify agonists of the Sphingosine 1-Phosphate Receptor 1 (S1P1). [Related pubchem assays (depositor defined):AID1509, AID1523, AID1801, AID463107, AID463118, AID463119, AID463122, AID463123, AID463129, AID463225, AID504400, AID504460]; format: functional
[18] = target: T2, Sphingosine 1-phosphate receptor 4; assay: Fluorescence dose response cell-based high throughput screening assay for agonists of the Sphingosine 1-Phosphate Receptor 4 (S1P4). [Related pubchem assays: 1509 (Primary screen.), 1523 (Confirmation screen in triplicates.)]; format: functional
Coagulation factor XII = Coagulation factor XII (Homo sapiens, UniProt P00748); format: functional;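 further: activated factor XIIa alpha cleaving a fluorogenic AMC peptide substrate; inhibitor potency from loss of enzyme activity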
[19] = target: Signal transducer and activator of transcription 3 (Homo sapiens, UniProt P40763); assay: STAT3 inhibitors, late-stage profile, late-stage follow-up, cell-based, STAT1 panel, qPCR, cytotoxicity, panel member STAT3 Inhibition (AID 2078)
[20] = target: Signal transducer and activator of transcription 1-alpha/beta (Homo sapiens, UniProt P42224); assay: STAT3 inhibitors, late-stage profile, late-stage follow-up, cell-based, STAT1 panel, qPCR, cytotoxicity, panel member STAT1 Inhibition (AID 2078)
[21] = target: T6, E3 ubiquitin-protein ligase XIAP (Homo sapiens, UniProt P98170); assay: Counter Screen using XIAP-Bir3 for Chemical Antagonists of Bir1/2 domains of IAP-family anti-apoptotic proteins. [Related pubchem assays (depositor defined):AID1018, AID1449, AID1514, AID1638, AID1749, AID1750, AID488957, AID488963]
[22] = target: T6, E3 ubiquitin-protein ligase XIAP; assay: XIAP antagonists, biochemical, IAP family, fluorescence polarization (AID 1018); format: functional
Mu-type opioid receptor [23] = target: T7, Mu-type opioid receptor (Homo sapiens, UniProt P35372); assay: MOR agonists by imaging, SAR follow-up, image-based (AID 2352); format: functional
[24] = target: T8, Delta-type opioid receptor (Homo sapiens, UniProt P41143); assay: DOR agonists, SAR follow-up, image-based (AID 2370); format: functional
[25] = target: T9, Kappa-type opioid receptor (Homo sapiens, UniProt P41145); assay: KOR antagonists by imaging, SAR follow-up, image-based (AID 2348); format: functional
Mu-type opioid receptor [26] = target: T7, Mu-type opioid receptor; assay: MOR antagonists, SAR follow-up, image-based (AID 2420); format: functional;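 further: compounds added before stimulation of receptor with agonist DAMGO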
[27] = target: T9, Kappa-type opioid receptor; assay: KOR agonist analogs, imaging readout, SAR follow-up, image-based (AID 2359); format: functional
[28] = target: T10, Tyrosine-protein phosphatase non-receptor type 7 (Homo sapiens, UniProt P35236); assay: SAR analysis of chemical inhibitors of HePTP using a Fluorescent assay - Set 2. [Related pubchem assays (depositor defined):AID1059, AID1077, AID1661, AID2085, AID521]; format: functional
T10 sequence (P35236 whole entry): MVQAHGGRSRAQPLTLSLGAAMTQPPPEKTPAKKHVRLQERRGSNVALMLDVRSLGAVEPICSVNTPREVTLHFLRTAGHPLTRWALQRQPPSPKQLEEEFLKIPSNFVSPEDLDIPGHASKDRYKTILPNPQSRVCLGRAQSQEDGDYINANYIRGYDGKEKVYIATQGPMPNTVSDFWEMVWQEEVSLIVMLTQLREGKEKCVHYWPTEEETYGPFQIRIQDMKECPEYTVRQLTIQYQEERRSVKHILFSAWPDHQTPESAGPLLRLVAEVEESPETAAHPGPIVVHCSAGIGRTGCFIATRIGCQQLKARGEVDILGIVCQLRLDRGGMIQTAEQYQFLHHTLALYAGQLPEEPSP

[29] = target: T1, Dual specificity protein phosphatase 3; assay: SAR VHR1 Fluorescent Assay for In Vitro dose response studies Set 2. [Related pubchem assays (depositor defined):AID1654, AID1661, AID1878]; format: functional
[30] = target: T8, Delta-type opioid receptor; assay: DOR antagonists, SAR follow-up, image-based (AID 2357); format: functional
[31] = target: T9, Kappa-type opioid receptor; assay: kappa opioid receptor blockers, cell-based, luminescence, beta-arrestin, SAR follow-up (AID 2285); format: functional

T9 sequence (P41145 whole entry): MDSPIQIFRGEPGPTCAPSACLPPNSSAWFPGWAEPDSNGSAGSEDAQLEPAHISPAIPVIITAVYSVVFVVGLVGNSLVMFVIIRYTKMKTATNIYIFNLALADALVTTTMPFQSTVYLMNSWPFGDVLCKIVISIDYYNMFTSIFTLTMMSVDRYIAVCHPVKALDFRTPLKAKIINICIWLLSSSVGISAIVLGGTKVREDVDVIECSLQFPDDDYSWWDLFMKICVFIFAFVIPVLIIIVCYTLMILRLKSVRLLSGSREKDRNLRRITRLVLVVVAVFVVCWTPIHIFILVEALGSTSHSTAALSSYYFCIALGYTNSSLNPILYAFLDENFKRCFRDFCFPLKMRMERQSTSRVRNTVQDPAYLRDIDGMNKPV
T1 sequence (P51452 whole entry): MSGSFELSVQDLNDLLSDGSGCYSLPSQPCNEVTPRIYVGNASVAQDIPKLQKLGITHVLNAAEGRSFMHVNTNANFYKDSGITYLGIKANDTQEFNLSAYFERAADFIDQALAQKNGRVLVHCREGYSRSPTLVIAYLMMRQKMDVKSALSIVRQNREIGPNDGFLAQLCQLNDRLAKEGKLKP
T7 sequence (P35372 whole entry): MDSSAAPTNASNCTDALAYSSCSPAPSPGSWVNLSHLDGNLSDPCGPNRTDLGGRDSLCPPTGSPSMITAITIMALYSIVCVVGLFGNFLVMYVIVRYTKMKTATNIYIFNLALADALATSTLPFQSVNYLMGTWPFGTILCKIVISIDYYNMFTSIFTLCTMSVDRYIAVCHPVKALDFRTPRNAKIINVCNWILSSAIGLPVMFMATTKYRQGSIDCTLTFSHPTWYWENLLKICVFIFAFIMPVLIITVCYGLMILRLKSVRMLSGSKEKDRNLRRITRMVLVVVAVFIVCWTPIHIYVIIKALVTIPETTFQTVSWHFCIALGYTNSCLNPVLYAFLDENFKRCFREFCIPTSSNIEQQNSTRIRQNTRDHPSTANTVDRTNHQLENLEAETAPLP
T3 sequence (P34972 whole entry): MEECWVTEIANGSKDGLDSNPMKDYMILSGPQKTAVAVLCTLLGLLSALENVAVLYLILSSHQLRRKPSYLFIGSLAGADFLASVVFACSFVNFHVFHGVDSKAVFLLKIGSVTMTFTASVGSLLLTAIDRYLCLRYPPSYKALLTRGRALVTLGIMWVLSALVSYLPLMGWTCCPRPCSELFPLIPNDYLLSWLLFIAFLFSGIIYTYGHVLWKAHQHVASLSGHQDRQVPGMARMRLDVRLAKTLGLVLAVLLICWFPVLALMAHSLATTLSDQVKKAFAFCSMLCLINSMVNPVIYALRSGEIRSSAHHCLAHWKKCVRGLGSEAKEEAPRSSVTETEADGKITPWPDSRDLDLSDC
T5 sequence (P21554 whole entry): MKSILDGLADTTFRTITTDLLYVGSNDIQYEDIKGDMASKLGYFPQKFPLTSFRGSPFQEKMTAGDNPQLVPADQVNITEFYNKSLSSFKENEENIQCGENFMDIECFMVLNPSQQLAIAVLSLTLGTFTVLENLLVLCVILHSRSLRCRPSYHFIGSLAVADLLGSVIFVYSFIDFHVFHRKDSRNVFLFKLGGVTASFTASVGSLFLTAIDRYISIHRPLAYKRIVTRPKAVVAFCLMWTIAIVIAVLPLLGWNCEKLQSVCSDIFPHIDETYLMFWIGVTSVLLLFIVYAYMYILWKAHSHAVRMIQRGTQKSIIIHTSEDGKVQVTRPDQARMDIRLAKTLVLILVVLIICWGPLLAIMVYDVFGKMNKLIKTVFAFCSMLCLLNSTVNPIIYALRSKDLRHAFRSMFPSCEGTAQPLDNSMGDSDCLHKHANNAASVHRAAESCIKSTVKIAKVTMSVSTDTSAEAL
T4 sequence (Q9HC97 whole entry): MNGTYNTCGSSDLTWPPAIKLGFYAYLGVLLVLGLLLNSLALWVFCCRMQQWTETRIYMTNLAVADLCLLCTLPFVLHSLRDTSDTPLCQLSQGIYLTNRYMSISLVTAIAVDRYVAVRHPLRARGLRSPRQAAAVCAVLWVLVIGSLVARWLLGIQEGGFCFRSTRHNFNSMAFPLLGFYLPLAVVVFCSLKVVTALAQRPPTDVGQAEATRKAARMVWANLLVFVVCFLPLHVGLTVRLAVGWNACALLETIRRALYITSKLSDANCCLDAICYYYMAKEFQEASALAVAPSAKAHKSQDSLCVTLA
T6 sequence (P98170 whole entry): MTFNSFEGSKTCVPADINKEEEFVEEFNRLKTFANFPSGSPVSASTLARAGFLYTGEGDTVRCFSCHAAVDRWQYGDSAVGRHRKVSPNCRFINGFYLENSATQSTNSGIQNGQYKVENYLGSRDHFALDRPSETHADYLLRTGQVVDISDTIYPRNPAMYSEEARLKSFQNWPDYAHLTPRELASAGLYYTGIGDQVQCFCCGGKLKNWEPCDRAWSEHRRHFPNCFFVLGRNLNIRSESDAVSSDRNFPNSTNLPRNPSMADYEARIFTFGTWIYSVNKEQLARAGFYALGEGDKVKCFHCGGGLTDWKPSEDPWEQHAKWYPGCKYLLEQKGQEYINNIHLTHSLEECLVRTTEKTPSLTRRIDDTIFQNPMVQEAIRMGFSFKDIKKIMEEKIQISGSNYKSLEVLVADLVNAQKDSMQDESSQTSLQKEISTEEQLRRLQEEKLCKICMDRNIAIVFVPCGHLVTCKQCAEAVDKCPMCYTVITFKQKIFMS
T8 sequence (P41143 whole entry): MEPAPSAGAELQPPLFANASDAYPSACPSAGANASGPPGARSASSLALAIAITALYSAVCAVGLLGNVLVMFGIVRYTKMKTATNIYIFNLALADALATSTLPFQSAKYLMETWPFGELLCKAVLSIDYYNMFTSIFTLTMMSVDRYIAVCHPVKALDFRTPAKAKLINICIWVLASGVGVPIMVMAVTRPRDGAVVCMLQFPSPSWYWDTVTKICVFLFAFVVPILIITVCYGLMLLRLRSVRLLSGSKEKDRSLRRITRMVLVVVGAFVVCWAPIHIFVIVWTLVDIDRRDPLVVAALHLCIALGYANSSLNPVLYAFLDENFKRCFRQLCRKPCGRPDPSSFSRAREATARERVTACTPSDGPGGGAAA
Sequence of Sphingosine 1-phosphate receptor 3 (Q99500 whole entry): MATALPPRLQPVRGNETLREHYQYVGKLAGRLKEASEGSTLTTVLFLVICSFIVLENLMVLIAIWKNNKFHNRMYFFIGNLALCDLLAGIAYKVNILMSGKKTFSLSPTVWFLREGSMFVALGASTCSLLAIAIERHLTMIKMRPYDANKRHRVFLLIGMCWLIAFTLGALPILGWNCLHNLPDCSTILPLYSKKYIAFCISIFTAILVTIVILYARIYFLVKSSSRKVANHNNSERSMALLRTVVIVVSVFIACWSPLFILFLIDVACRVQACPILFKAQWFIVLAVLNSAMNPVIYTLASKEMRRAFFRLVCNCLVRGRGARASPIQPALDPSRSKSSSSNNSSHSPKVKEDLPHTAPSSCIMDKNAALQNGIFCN
Sequence of G-protein coupled receptor 55 (Q9Y2T6 whole entry): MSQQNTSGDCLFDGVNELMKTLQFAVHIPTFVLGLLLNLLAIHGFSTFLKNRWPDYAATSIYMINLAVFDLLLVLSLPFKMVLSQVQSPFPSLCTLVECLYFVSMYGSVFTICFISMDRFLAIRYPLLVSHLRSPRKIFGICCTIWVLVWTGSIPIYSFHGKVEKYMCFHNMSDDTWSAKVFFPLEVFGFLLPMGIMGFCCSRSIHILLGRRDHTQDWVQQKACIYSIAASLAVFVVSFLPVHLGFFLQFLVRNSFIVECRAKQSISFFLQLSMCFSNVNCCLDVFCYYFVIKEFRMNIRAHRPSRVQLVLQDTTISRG
Sequence of Sphingosine 1-phosphate receptor 2 (O95136 whole entry): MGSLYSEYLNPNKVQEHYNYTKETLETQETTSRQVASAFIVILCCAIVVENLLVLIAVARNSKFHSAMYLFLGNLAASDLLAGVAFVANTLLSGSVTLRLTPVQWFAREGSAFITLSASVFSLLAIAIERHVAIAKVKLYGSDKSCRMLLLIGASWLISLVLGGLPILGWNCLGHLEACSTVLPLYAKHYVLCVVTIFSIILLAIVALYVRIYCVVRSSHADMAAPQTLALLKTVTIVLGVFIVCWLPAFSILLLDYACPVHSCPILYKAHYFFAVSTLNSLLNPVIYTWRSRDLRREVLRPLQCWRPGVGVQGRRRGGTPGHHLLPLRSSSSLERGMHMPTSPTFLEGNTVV
Sequence of Sphingosine 1-phosphate receptor 5 (Q9H228 whole entry): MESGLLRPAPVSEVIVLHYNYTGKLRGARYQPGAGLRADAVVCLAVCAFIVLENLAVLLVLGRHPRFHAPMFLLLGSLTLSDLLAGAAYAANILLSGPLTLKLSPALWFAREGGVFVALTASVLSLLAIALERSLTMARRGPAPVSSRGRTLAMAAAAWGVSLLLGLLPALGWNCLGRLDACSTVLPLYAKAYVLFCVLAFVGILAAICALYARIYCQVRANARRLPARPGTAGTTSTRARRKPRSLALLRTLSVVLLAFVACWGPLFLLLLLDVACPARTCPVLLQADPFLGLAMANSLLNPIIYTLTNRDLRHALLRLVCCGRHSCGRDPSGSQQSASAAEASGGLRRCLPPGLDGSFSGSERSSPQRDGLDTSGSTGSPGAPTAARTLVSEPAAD
Sequence of Sphingosine 1-phosphate receptor 1 (P21453 whole entry): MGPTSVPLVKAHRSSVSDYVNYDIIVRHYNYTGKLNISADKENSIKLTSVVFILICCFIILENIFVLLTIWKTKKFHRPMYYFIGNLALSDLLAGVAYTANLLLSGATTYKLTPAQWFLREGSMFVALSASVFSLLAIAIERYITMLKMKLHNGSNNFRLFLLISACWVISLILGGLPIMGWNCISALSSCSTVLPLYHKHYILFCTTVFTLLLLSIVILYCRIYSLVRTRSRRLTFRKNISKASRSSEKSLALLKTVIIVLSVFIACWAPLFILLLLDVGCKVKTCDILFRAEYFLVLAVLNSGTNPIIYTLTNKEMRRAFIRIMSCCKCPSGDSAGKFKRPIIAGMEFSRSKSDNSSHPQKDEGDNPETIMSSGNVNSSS

O=C(O)C1CCC(N2C(=O)c3c(Cl)c(Cl)c(Cl)c(Cl)c3C2=O)CC1 (configuration not stated)
IC50 [1]: 5.1 µM (active) | IC50 [2]: 3.6 µM (active) | IC50 [3]: 113 µM (not active)

CC(C)(C)CCN1CCC[C@H](NC(=O)COc2ccccc2Cl)C1
EC50 [4]: 10 µM (active)

O=C(Nc1ccccc1Cl)C(=O)c1cn(CC(=O)N2CCOCC2)c2ccccc12
EC50 [5]: 2 µM (active)

Cc1cccc(C)c1NC(=O)c1ccc(-c2cc(Cl)ccc2Cl)o1
IC50 [6]: > 25 µM (inactive) | IC50 [7]: 19.5 µM (inactive) | IC50 [8]: 7.88 µM (active)

Cc1ccc(OCc2ccc(Cl)cc2)c([N+](=O)[O-])n1
EC50 [9]: > 50 µM (inactive)

COc1ccc(S(=O)(=O)N2CCOCC2)cc1NC(=O)c1ccc(-n2nc(C)cc2C)cc1
IC50 (Cannabinoid receptor 2 [10]): > 32 µM (inactive) | EC50 [11]: 0.831 µM (active) | EC50 (Cannabinoid receptor 2 [12]): > 32 µM (inactive) | EC50 [13]: > 32 µM (inactive) | IC50 (Cannabinoid receptor 1 [14]): 20.3 µM (inactive) | EC50 (Cannabinoid receptor 1 [15]): > 32 µM (inactive) | IC50 [16]: > 32 µM (inactive)

COc1cccc(C2CN(c3ccc(F)cc3F)N=C2c2cccs2)c1OC (configuration not stated)
EC50 [17]: 7.49 µM (active) | EC50 [18]: 11.1 µM (not active)

CC(C(=O)Oc1ccc2c(c1)OCO2)N1C(=O)c2ccccc2C1=O (configuration not stated)
IC50 (Coagulation factor XII): > 50 µM (inactive)

c1ccc(Cc2nc(N3CCC(Cc4ccccc4)CC3)c3c4c(sc3n2)CCCC4)cc1
IC50 [19]: > 55.7 µM (inactive) | IC50 [20]: > 55.7 µM (inactive)

CCNC(=O)CSc1nnc(-c2cccc(S(=O)(=O)N(CC)CC)c2)n1CCc1ccccc1
IC50 [21]: > 100 µM (inactive) | IC50 [22]: > 100 µM (not active)

Cc1ccc(NC(=S)NC(NC(=O)OCc2ccccc2)C(Cl)(Cl)Cl)cc1 (configuration not stated)
EC50 (Mu-type opioid receptor [23]): > 32 µM (inactive) | EC50 [24]: > 32 µM (inactive) | IC50 [25]: > 32 µM (inactive) | IC50 (Mu-type opioid receptor [26]): > 32 µM (inactive) | EC50 [27]: > 32 µM (inactive) | IC50 [28]: > 100 µM (inactive) | IC50 [29]: > 100 µM (inactive) | IC50 [30]: > 32 µM (inactive) | IC50 [31]: > 10 µM (inactive)
